Test results published in ChEMBL document CHEMBL1148159, “An analysis of phakellin and oroidin structures stimulated by further study of an Agelas sponge” (J Nat Prod, 2004).
pIC50: −log10 of the molar value.

Target: T1, Polyunsaturated fatty acid lipoxygenase ALOX12 (Homo sapiens, UniProt P18054)
T1 sequence (P18054 whole entry): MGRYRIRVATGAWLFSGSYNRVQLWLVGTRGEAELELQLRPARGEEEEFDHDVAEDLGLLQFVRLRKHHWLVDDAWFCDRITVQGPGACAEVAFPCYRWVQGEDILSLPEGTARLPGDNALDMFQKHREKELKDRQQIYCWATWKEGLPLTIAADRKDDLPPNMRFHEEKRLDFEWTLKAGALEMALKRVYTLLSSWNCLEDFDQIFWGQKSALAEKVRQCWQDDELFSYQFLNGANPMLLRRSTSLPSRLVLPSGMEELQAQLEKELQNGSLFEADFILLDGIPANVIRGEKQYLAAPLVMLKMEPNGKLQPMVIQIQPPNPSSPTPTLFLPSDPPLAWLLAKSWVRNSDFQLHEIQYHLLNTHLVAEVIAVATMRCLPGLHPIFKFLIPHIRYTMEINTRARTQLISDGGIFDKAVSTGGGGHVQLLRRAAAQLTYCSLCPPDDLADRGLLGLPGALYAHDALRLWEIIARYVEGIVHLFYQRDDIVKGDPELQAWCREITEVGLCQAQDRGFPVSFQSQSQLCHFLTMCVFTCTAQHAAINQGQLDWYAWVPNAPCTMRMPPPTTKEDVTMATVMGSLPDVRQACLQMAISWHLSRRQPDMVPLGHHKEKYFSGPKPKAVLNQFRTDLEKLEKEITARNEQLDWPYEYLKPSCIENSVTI
Assay: Inhibition of human 12-lipoxygenase

- pIC50: 4.97
Compound: CN1C(N)=N[C@]23CCCN2C(=O)c2cc(Br)c(Br)n2[C@H]13
